Test [1] relates to hypoxemia model animals. Put plainly: Effect on partial pressure of gases in arterial blood, injection system, Method B (acetic acid-induced hypoxemia). The conditions noted are these: 2.0% acetic acid intratracheal 0.6 ml/kg, PaO2 60-70 mmHg, intravenous continuous 0.1 mg/kg/min, after minus before administration. In kind it is in vivo, Male Wister strain rats. The protocol:
(§1) Example 59: Effect on Partial Pressure Value of Gases in Arterial Blood (Injection system)
Male Wister strain rats (body about 300 g) were anesthetized with halothane inhalant, and then 2.0% acetic acid was intratrachealy injected at 0.6 ml/kg to induce a respiratory insufficiency. The animals were intra-peritoneally anesthetized with urethane-α-chloralose, and a cannula was inserted into the femoral artery. After the hypoxemic state (PaO2: 60-70 mmHg) was observed a compound in accordance with the present invention (test substance) was intravenously injected into these hypoxemia model animals by a continuous manner (0.1 mg/kg/min), and then a partial pressure value of gases (PaO2, PaCO2) in arterial blood were immediately determined.

The subject of another test is hypoxemia state. Put plainly: Effect on partial pressure of gases in arterial blood, oral administration system (acetic acid-induced hypoxemia). The class given is in vivo, Male Wistar strain rats. The following applies: orally administered; 2.0% acetic acid intratracheal 0.8 ml/kg; 60 min. after the administration. As to the method:
Example 60: Effect on Partial Pressure Value of Gases in Arterial Blood (Oral Administration System)
Male Wistar strain rats (body weight about 250 g) fasted overnight were anesthetized with halothane inhalant, and then a cannula was inserted into the femoral artery. After the animals recovered from the anesthesia, they were again anesthetized with halothane inhalant, and then 2.0% acetic acid was intratrachealy injected at 0.8 ml/kg to induce a hypoxemia state. After the hypoxemic state was observed over about 60 min., a compound in accordance with the present invention (test substance) was orally administered to the animals. On 60 min. after the administration, the partial pressure value of gases (PaO2, PaCO2) in arterial blood were determined.

The subject of test [2] is hypoxemia model animals. Description: Effect on partial pressure of gases in arterial blood, injection system, Method A (carbon powder-induced hypoxemia). The class given is in vivo, Male Wister strain rats. The following applies: carbon powder intratracheal, PaO2 50-60 mmHg, intravenous continuous 0.1 mg/kg/min., 10 min, after minus before administration. The protocol:
as §1
Male Wister strain rats (body weight about 300 g) were anesthetized intra-peritoneally with urethane, and a cannula was inserted into the respiratory tract and the femoral artery, respectively. A suspension (30-100 µm, 10 mg/ml) of carbon powder in a corn oil was intratrachealy injected to induce a hypoxemia state (PaO2; 50-60 mmHg). A compound in accordance with the present invention was intravenously injected into these hypoxemia model animals by a continuous manner (0.1 mg/kg/min., 10 min), and then a partial pressure value of gases (PaO2, PaCO2) in arterial blood were immediately determined.

Molecules are shown by their SMILES.

Take `C=CCNc1nc(NC(C)c2ccccc2)c2ccn(C)c2n1` (racemic) [Compound 156, (±)-2-allylamino-7-methyl-4-(1-phenylethyl-amino)-7H-pyrrolo[2,3-d]pyrimidine]: in the test on hypoxemia model animals [1], the “Activity for Decreasing PaCO2 ΔPaCO2” value is listed as -9.1 mmHg and the “Activity for Increasing PaO2 ΔPaO2” value is on record as “+19.7 mmHg”. For the same compound, in the test on hypoxemia state, the “Activity for Decreasing PaCO2 ΔPaCO2” value is listed as “+ (+: -3 - -6 mmHg)” and the “Activity for Increasing PaO2 ΔPaO2” value is “+ +”.
`C=CCNc1nc(N2CCC(OC(C)=O)CC2)c2ccn(C)c2n1` [Compound 119]: in the test on hypoxemia model animals [2], the “Activity for Decreasing PaCO2 ΔPaCO2” value was -2.6 mmHg and the “Activity for Increasing PaO2 ΔPaO2” value is “+7.1 mmHg”.
In the case of `C=CCNc1nc(N2CCOCC2)c2ccn(C)c2n1` [Compound 124], in the test with hypoxemia model animals [1], the “Activity for Decreasing PaCO2 ΔPaCO2” value is given as -4.0 mmHg and the “Activity for Increasing PaO2 ΔPaO2” value was “+5.7 mmHg”. In the test on hypoxemia state, the “Activity for Decreasing PaCO2 ΔPaCO2” value is recorded as “+ (+: -3 - -6 mmHg)” and the “Activity for Increasing PaO2 ΔPaO2” value was “+ (ΔPaO2 +: +3 - +6 mmHg)”.
On to `C=CCNc1nc(N2CCN(C(c3ccc(F)cc3)c3ccc(F)cc3)CC2)c2ccn(C)c2n1` [Compound 133], for which, in the test with hypoxemia model animals [2], the “Activity for Decreasing PaCO2 ΔPaCO2” value is listed as -0.6 mmHg and the “Activity for Increasing PaO2 ΔPaO2” value was “+6.9 mmHg”.
As for `C=CCNc1nc(N2CCN(C(c3ccc(F)cc3)c3ccc(F)cc3)CC2)c2ccn(CC=C)c2n1` [Compound 143], in the test with hypoxemia model animals [2], the “Activity for Decreasing PaCO2 ΔPaCO2” value is recorded as “+1.1 mmHg” and the “Activity for Increasing PaO2 ΔPaO2” value is listed as “+5.0 mmHg”.
`C=CCNc1nc(NC2CCCCC2)c2ccn(C)c2n1` [Compound 150]: in the test on hypoxemia model animals [1], the “Activity for Decreasing PaCO2 ΔPaCO2” value is listed as -18.6 mmHg and the “Activity for Increasing PaO2 ΔPaO2” value is reported as “+18.4 mmHg”.
As for `C=CCNc1nc(NC2CCCc3ccccc32)c2ccn(C)c2n1` (centres unmarked) [Compound 162], in the test on hypoxemia model animals [1], the “Activity for Decreasing PaCO2 ΔPaCO2” value was -17.2 mmHg and the “Activity for Increasing PaO2 ΔPaO2” value is recorded as “+18.1 mmHg”.
The corresponding values for `C=CCNc1nc(NCCc2ccccc2)c2ccn(C)c2n1` [Compound 164] are -19.2 mmHg and “+15.4 mmHg”.
Regarding `C=CCNc1nc(N(C)C)c2ccn(C)c2n1` [Compound 165], in the test with hypoxemia model animals [1], the “Activity for Decreasing PaCO2 ΔPaCO2” value is “+1.1 mmHg” and the “Activity for Increasing PaO2 ΔPaO2” value is given as “+7.9 mmHg”. Besides, in the test with hypoxemia state, the “Activity for Decreasing PaCO2 ΔPaCO2” value is listed as “± (ΔPaCO2 ±: 0 - -3 mmHg)” and the “Activity for Increasing PaO2 ΔPaO2” value is given as “+ (ΔPaO2 +: +3 - +6 mmHg)”.
As to `C=CCNc1nc(N(C)CCc2ccccc2)c2ccn(C)c2n1` [Compound 167], in the test with hypoxemia model animals [1], the “Activity for Decreasing PaCO2 ΔPaCO2” value was -6.6 mmHg and the “Activity for Increasing PaO2 ΔPaO2” value is “+11.3 mmHg”.
